Measured values published in US9919998B2, “Antibacterial agents: Nα-aroyl-N-aryl-phenylalaninamides” (priority 2014, dated 2018).
≈ marks a conversion by molar mass, not a printed value.

Legend:
Format in all cases: cell-based
[1] = test system: Mycobacterium tuberculosis H37Rv; experiment: Microplate Alamar Blue assay (MABA) MIC, M. tuberculosis; settings: read-out: MIC Mycobacterium tuberculosis H37Rv
Source text: (§1) Minimal inhibitory concentrations (MICs) in Mycobacterium tuberculosis H37Rv and Mycobacterium avium ATCC 25291 were quantified using microplate Alamar Blue assays as described (MABA; [Collins, L. & Franzblau, S. (1997) Microplate Alamar Blue assay versus BACTEC 460 system for high-throughput screening of compounds against Mycobacterium tuberculosis and Mycobacterium avium. Antimicrob. Agents Chemother. 41, 1004-1009]).

[2] = test system: Mycobacterium avium ATCC 25291; experiment: Microplate Alamar Blue assay (MABA) MIC, M. avium; settings: ATCC25291, M. avium ATCC 25291
Source text: as §1

[3] = test system: Mycobacterium smegmatis ATCC 19420; experiment: Broth microdilution MIC, M. smegmatis; settings: Mycolicibacterium smegmatis, ATCC19420, M. smegmatis ATCC 19420; read-out: MIC Mycobacterium smegmatis ATCC 19420
Source text: MICs in Mycobacterium smegmatis ATCC 19420 and Mycobacterium smegmatis ATCC 19420 derivatives were quantified using broth microdilution assays as described [Clinical and Laboratory Standards Institute (CLSI/NCCLS) (2009) Methods for Dilution Antimicrobial Susceptibility Tests for Bacteria That Grow Aerobically; Approved Standard, Eighth Edition. CLIS Document M07-A8 (CLIS, Wayne Pa.)].

[4] = test system: Vero E6 ATCC CRL1586 cells; experiment: Mammalian-cell cytotoxicity, minimal cytotoxic concentration (CellTiter96)
Procedure: Minimal cytotoxic concentrations (MCCs) against mammalian cells in culture were determined using Vero E6 ATCC CRL1586 cells and the CellTiter96 assay kit (Promega, Inc.). […]

Row | SMILES | MIC [1] | MIC [2] | MIC [3] | MCC mammalian cells Vero E6 ATCC CRL1586 [4]
1 | Cc1ccccc1NC(=O)C(Cc1ccc(O)cc1)NC(=O)c1cccs1 (stereo not drawn) [IX-28, N-(3-(4-hydroxyphenyl)-1-oxo-1-(o-tolylamino)propan-2-yl)thiophene-2-carboxamide] | 12.5 µg/mL (≈ 32.9 µM) | 12.5 µg/mL (≈ 32.9 µM) | 0.39 µg/mL (≈ 1.03 µM) | 80 µg/mL
2 | COc1ccccc1NC(=O)C(Cc1ccccc1)NC(=O)c1cccs1 (stereo not drawn) [IX-29, N-(1-((2-methoxyphenyl)amino)-1-oxo-3-phenylpropan-2-yl)thiophene-2-carboxamide] | 3.12 µg/mL (≈ 8.21 µM) | 6.25 µg/mL (≈ 16.4 µM) | 0.195 µg/mL (≈ 0.513 µM) | >100 µg/mL
3 | O=C(NC(Cc1ccccc1)C(=O)Nc1cccc2cnccc12)c1cccs1 (stereo not drawn) [IX-30, N-(1-(isoquinolin-5-ylamino)-1-oxo-3-phenylpropan-2-yl)thiophene-2-carboxamide] | 3.12 µg/mL (≈ 7.78 µM) | 6.25 µg/mL (≈ 15.6 µM) | 0.195 µg/mL (≈ 0.486 µM) | 37 µg/mL
4 | O=C(NC(Cc1ccccc1)C(=O)Nc1cccc2c1OCCO2)c1cccs1 (stereo not drawn) [IX-31, N-(1-((2,3-dihydrobenzo[b][1,4]dioxin-5-yl)amino)-1-oxo-3-phenylpropan-2-yl)thiophene-2-carboxamide] | 3.12 µg/mL (≈ 7.65 µM) | 3.12 µg/mL (≈ 7.65 µM) | 0.195 µg/mL (≈ 0.477 µM) | 30 µg/mL
5 | COc1ccccc1NC(=O)C(Cc1ccc(O)cc1)NC(=O)c1cccs1 (stereo not drawn) [IX-32, N-(3-(4-hydroxyphenyl)-1-((2-methoxyphenyl)amino)-1-oxopropan-2-yl)thiophene-2-carboxamide] | 12.5 µg/mL (≈ 31.5 µM) | 6.25 µg/mL (≈ 15.8 µM) | 0.195 µg/mL (≈ 0.492 µM) | 100 µg/mL
6 | O=C(NC(Cc1ccc(O)cc1)C(=O)Nc1cccc2cnccc12)c1cccs1 (stereo not drawn) [IX-33, N-(3-(4-hydroxyphenyl)-1-(isoquinolin-5-ylamino)-1-oxopropan-2-yl)thiophene-2-carboxamide] | 12.5 µg/mL (≈ 29.9 µM) | 6.25 µg/mL (≈ 15 µM) | 0.195 µg/mL (≈ 0.467 µM) | 80 µg/mL
7 | O=C(NC(Cc1ccc(O)cc1)C(=O)Nc1cccc2c1OCCO2)c1cccs1 (stereo not drawn) [IX-34, N-(1-((2,3-dihydrobenzo[b][1,4]dioxin-5-yl)amino)-3-(4-hydroxyphenyl)-1-oxopropan-2-yl)thiophene-2-carboxamide] | 6.25 µg/mL (≈ 14.7 µM) | 3.12 µg/mL (≈ 7.36 µM) | 0.39 µg/mL (≈ 0.919 µM) | 85 µg/mL
8 | COc1ncccc1NC(=O)C(Cc1ccccc1)NC(=O)c1ccccc1 (stereo not drawn) [IX-38, N-(1-((2-methoxypyridin-3-yl)amino)-1-oxo-3-phenylpropan-2-yl)benzamide] | 6.25 µg/mL (≈ 16.6 µM) | 6.25 µg/mL (≈ 16.6 µM) | 0.39 µg/mL (≈ 1.04 µM) | 38 µg/mL
9 | O=C(NC(Cc1ccccc1)C(=O)Nc1cccc2cn[nH]c12)c1ccccc1 (stereo not drawn) [IX-39, N-(1-((1H-indazol-7-yl)amino)-1-oxo-3-phenylpropan-2-yl)benzamide] | > 50 µg/mL | > 50 µg/mL | 1.56 µg/mL (≈ 4.06 µM) | 20 µg/mL
10 | O=C(NC(Cc1ccc(O)cc1)C(=O)Nc1cccc2cc[nH]c12)c1ccccc1 (stereo not drawn) [IX-40, N-(1-((1H-indol-7-yl)amino)-3-(4-hydroxyphenyl)-1-oxopropan-2-yl)benzamide] | 12.5 µg/mL (≈ 31.3 µM) | 12.5 µg/mL (≈ 31.3 µM) | 0.39 µg/mL (≈ 0.976 µM) | 78 µg/mL
11 | O=C(NC(Cc1ccccc1)C(=O)Nc1cccc2cc[nH]c12)c1cccs1 (stereo not drawn) [IX-41, N-(1-((1H-indol-7-yl)amino)-1-oxo-3-phenylpropan-2-yl)thiophene-2-carboxamide] | 12.5 µg/mL (≈ 32.1 µM) | 12.5 µg/mL (≈ 32.1 µM) | 0.39 µg/mL (≈ 1 µM) | 48 µg/mL
12 | COc1ccccc1NC(=O)C(Cc1ccccc1)NC(=O)c1cccc2[nH]ccc12 (stereo not drawn) [IX-43, N-(1-((2-methoxyphenyl)amino)-1-oxo-3-phenylpropan-2-yl)-1H-indole-4-carboxamide] | 6.25 µg/mL (≈ 15.1 µM) | 12.5 µg/mL (≈ 30.2 µM) | 0.39 µg/mL (≈ 0.943 µM) | 59 µg/mL
13 | O=C(NC(Cc1ccccc1)C(=O)Nc1cccc2cnccc12)c1cccc2[nH]ccc12 (stereo not drawn) [IX-44, N-(1-(isoquinolin-5-ylamino)-1-oxo-3-phenylpropan-2-yl)-1H-indole-4-carboxamide] | 1.56 µg/mL (≈ 3.59 µM) | 3.12 µg/mL (≈ 7.19 µM) | 0.195 µg/mL (≈ 0.449 µM) | 70 µg/mL
14 | O=C(NC(Cc1ccccc1)C(=O)Nc1cccc2c1OCCO2)c1cccc2[nH]ccc12 (stereo not drawn) [IX-45, N-(1-((2,3-dihydrobenzo[b][1,4]dioxin-5-yl)amino)-1-oxo-3-phenyl-propan-2-yl)-1H-indole-4-carboxamide] | 3.12 µg/mL (≈ 7.08 µM) | 6.25 µg/mL (≈ 14.2 µM) | 0.39 µg/mL (≈ 0.883 µM) | 71 µg/mL
15 | Cc1ccc(Cl)cc1NC(=O)C(Cc1ccc(O)cc1)NC(=O)c1ccccc1 (stereo not drawn) [IX-51, N-(1-((5-chloro-2-methylphenyl)amino)-3-(4-hydroxyphenyl)-1-oxopropan-2-yl)benzamide] | 3.12 µg/mL (≈ 7.64 µM) | 6.25 µg/mL (≈ 15.3 µM) | 0.78 µg/mL (≈ 1.91 µM) | 60 µg/mL
16 | Cc1ccc(Cl)cc1NC(=O)C(Cc1ccccc1)NC(=O)c1cccc2[nH]ccc12 (stereo not drawn) [IX-53, N-(1-((5-chloro-2-methylphenyl)amino)-1-oxo-3-phenylpropan-2-yl)-1H-indole-4-carboxamide] | 3.12 µg/mL (≈ 7.24 µM) | 3.12 µg/mL (≈ 7.24 µM) | 0.39 µg/mL (≈ 0.903 µM) | 34 µg/mL
17 | Cc1ccccc1NC(=O)C(Cc1ccc(O)cc1)NC(=O)c1ccccc1F (stereo not drawn) [IX-54, 2-fluoro-N-(3-(4-hydroxyphenyl)-1-oxo-1-(o-tolylamino)propan-2-yl)benzamide] | 25 µg/mL (≈ 63.7 µM) | 50 µg/mL (≈ 127 µM) | 1.56 µg/mL (≈ 3.98 µM) | >100 µg/mL
18 | COc1ccccc1NC(=O)C(Cc1ccccc1)NC(=O)c1ccccc1F (stereo not drawn) [IX-56, 2-fluoro-N-(1-((2-methoxyphenyl)amino)-1-oxo-3-phenylpropan-2-yl)benzamide] | 3.12 µg/mL (≈ 7.96 µM) | 6.25 µg/mL (≈ 15.9 µM) | 0.39 µg/mL (≈ 0.994 µM) | 97 µg/mL
19 | O=C(NC(Cc1ccccc1)C(=O)Nc1cccc2cnccc12)c1ccccc1F (stereo not drawn) [IX-57, 2-fluoro-N-(1-(isoquinolin-5-ylamino)-1-oxo-3-phenylpropan-2-yl)benzamide] | 6.25 µg/mL (≈ 15.1 µM) | 12.5 µg/mL (≈ 30.2 µM) | 0.39 µg/mL (≈ 0.943 µM) | 79 µg/mL
20 | O=C(NC(Cc1ccccc1)C(=O)Nc1cccc2c1OCCO2)c1ccccc1F (stereo not drawn) [IX-59, N-(1-((2,3-dihydrobenzo[b][1,4]dioxin-5-yl)amino)-1-oxo-3-phenylpropan-2-yl)-2-fluorobenzamide] | 3.12 µg/mL (≈ 7.43 µM) | 6.25 µg/mL (≈ 14.9 µM) | 0.095 µg/mL (≈ 0.226 µM) | 49 µg/mL
21 | Cc1ccccc1NC(=O)C(Cc1ccc(O)cc1)NC(=O)c1ccccc1Cl (stereo not drawn) [IX-60, 2-chloro-N-(3-(4-hydroxyphenyl)-1-oxo-1-(o-tolylamino)propan-2-yl)benzamide] | 50 µg/mL (≈ 122 µM) | > 50 µg/mL | 3.12 µg/mL (≈ 7.64 µM) | >100 µg/mL
22 | Cc1ccc(Cl)cc1NC(=O)C(Cc1ccccc1)NC(=O)c1ccccc1Cl (stereo not drawn) [IX-61, 2-chloro-N-(1-((5-chloro-2-methylphenyl)amino)-1-oxo-3-phenylpropan-2-yl)benzamide] | > 50 µg/mL | > 50 µg/mL | 0.39 µg/mL (≈ 0.913 µM) | 9.2 µg/mL
23 | COc1ccccc1NC(=O)C(Cc1ccccc1)NC(=O)c1ccccc1Cl (stereo not drawn) [IX-62, 2-chloro-N-(1-((2-methoxyphenyl)amino)-1-oxo-3-phenylpropan-2-yl)benzamide] | 6.25 µg/mL (≈ 15.3 µM) | 6.25 µg/mL (≈ 15.3 µM) | 0.39 µg/mL (≈ 0.954 µM) | 12 µg/mL
24 | O=C(NC(Cc1ccccc1)C(=O)Nc1cccc2cnccc12)c1ccccc1Cl (stereo not drawn) [IX-63, 2-chloro-N-(1-(isoquinolin-5-ylamino)-1-oxo-3-phenylpropan-2-yl)benzamide] | 6.25 µg/mL (≈ 14.5 µM) | 12.5 µg/mL (≈ 29.1 µM) | 0.78 µg/mL (≈ 1.81 µM) | >100 µg/mL
